Results published in ChEMBL document CHEMBL4627352, “New acrylamide-sulfisoxazole conjugates as dihydropteroate synthase inhibitors” (Bioorg Med Chem, 2020).
Converted amounts (≈) assume the structure as drawn. The source made the active and inactive calls. No cut-off for these calls is given here.

Assays:
Proteus vulgaris [1] = test: Inhibition of DHPS in Proteus vulgaris assessed as antibacterial activity by measuring inhibition zone at 5 mg/mL incubated for 24 hrs by disk diffusion method
Streptococcus pneumoniae [2] = test: Inhibition of DHPS in Streptococcus pneumoniae assessed as antibacterial activity by measuring inhibition zone at 5 mg/mL incubated for 24 hrs by disk diffusion method
Geotrichum candidum [3] = test: Inhibition of DHPS in Geotrichum candidum assessed as antifungal activity by measuring inhibition zone at 5 mg/mL incubated for 48 hrs by disk diffusion method
Escherichia coli [4] = test: Inhibition of DHPS in Escherichia coli assessed as antibacterial activity by measuring inhibition zone at 5 mg/mL incubated for 24 hrs by disk diffusion method
Bacillus subtilis [5] = test: Inhibition of DHPS in Bacillus subtilis assessed as antibacterial activity by measuring inhibition zone at 5 mg/mL incubated for 24 hrs by disk diffusion method
Aspergillus fumigatus [6] = test: Inhibition of DHPS in Aspergillus fumigatus assessed as antifungal activity by measuring inhibition zone at 5 mg/mL incubated for 48 hrs by disk diffusion method
[7] = tested on: Syncephalastrum racemosum; test: Inhibition of DHPS in Syncephalastrum racemosum assessed as antifungal activity by measuring inhibition zone at 5 mg/mL incubated for 48 hrs by disk diffusion method
Klebsiella pneumoniae [8] = test: Inhibition of DHPS in Klebsiella pneumoniae assessed as antibacterial activity by measuring inhibition zone at 5 mg/mL incubated for 24 hrs by disk diffusion method
[9] = tested on: Escherichia coli ATCC 25922; test: Inhibition of DHPS in Escherichia coli ATCC 25922 assessed as inhibition of bacterial growth incubated for 24 hrs in presence of folate precursor, pABA by microbroth dilution method
[10] = tested on: Escherichia coli ATCC 25922; test: Inhibition of DHPS in Escherichia coli ATCC 25922 assessed as inhibition of bacterial growth incubated for 24 hrs in presence of folate dependent metabolite, methionine by microbroth dilution method
[11] = tested on: Staphylococcus epidermidis; test: Inhibition of DHPS in Staphylococcus epidermidis assessed as antibacterial activity by measuring inhibition zone at 5 mg/mL incubated for 24 hrs by disk diffusion method
[12] = tested on: Staphylococcus epidermidis; test: Inhibition of DHPS in Staphylococcus epidermidis assessed as antibacterial activity by measuring inhibition of bacterial growth incubated for 24 hrs by microbroth dilution method
Klebsiella pneumoniae [13] = test: Inhibition of DHPS in Klebsiella pneumoniae assessed as antibacterial activity by measuring inhibition of bacterial growth incubated for 24 hrs by microbroth dilution method
hTERT-BJ = test: Cytotoxicity against human hTERT-BJ1 cells at 50 uM by acid phosphatase assay relative to control; assay type: cell-based
Geotrichum candidum [14] = test: Inhibition of DHPS in Geotrichum candidum assessed as antifungal activity by measuring inhibition of fungal growth incubated for 48 hrs by microbroth dilution method
Streptococcus pneumoniae [15] = test: Inhibition of DHPS in Streptococcus pneumoniae assessed as antibacterial activity by measuring inhibition of bacterial growth incubated for 24 hrs by microbroth dilution method
Bacillus subtilis [16] = test: Inhibition of DHPS in Bacillus subtilis assessed as antibacterial activity by measuring inhibition of bacterial growth incubated for 24 hrs by microbroth dilution method
[17] = tested on: Syncephalastrum racemosum; test: Inhibition of DHPS in Syncephalastrum racemosum assessed as antifungal activity by measuring inhibition of fungal growth incubated for 48 hrs by microbroth dilution method
Escherichia coli [18] = test: Inhibition of DHPS in Escherichia coli assessed as antibacterial activity by measuring inhibition of bacterial growth incubated for 24 hrs by microbroth dilution method
Aspergillus fumigatus [19] = test: Inhibition of DHPS in Aspergillus fumigatus assessed as antifungal activity by measuring inhibition of fungal growth incubated for 48 hrs by microbroth dilution method
Aspergillus fumigatus [20] = test: Potency index, ratio of sulfisoxazole MIC to compound MIC for Aspergillus fumigatus assessed as inhibition of DHPS-mediated fungal growth incubated for 48 hrs by microbroth dilution method
Proteus vulgaris [21] = test: Inhibition of DHPS in Proteus vulgaris assessed as antibacterial activity by measuring inhibition of bacterial growth incubated for 24 hrs by microbroth dilution method

| Molecule | inhibition zone (IZ) (Proteus vulgaris [1]) | inhibition zone (IZ) (Streptococcus pneumoniae [2]) | inhibition zone (IZ) (Geotrichum candidum [3]) | inhibition zone (IZ) (Escherichia coli [4]) | inhibition zone (IZ) (Bacillus subtilis [5]) | inhibition zone (IZ) (Aspergillus fumigatus [6]) | inhibition zone (IZ) [7] | inhibition zone (IZ) (Klebsiella pneumoniae [8]) | inhibition [9] | inhibition [10] | inhibition zone (IZ) [11] | MIC [12] [µg/mL] | MIC (Klebsiella pneumoniae [13]) [µg/mL] | MIC (Geotrichum candidum [14]) [µg/mL] | MIC (Streptococcus pneumoniae [15]) [µg/mL] | MIC (Bacillus subtilis [16]) [µg/mL] | MIC [17] [µg/mL] | MIC (Escherichia coli [18]) [µg/mL] | further results |
| --- | --- | --- | --- | --- | --- | --- | --- | --- | --- | --- | --- | --- | --- | --- | --- | --- | --- | --- | --- |
| Cc1noc(NS(=O)(=O)c2ccc(NC(=O)c3c(N)n[nH]c3Nc3ccccc3)cc2)c1C | inactive | inactive | inactive | inactive | 12.6 mm | inactive | inactive | inactive | inactive | inactive | 13.4 mm | 15.6 (≈ 33.4 µM) |  |  |  |  |  |  |  |
| CCN/C(S)=C(/C#N)C(=O)Nc1ccc(S(=O)(=O)Nc2onc(C)c2C)cc1 | 12.6 mm | 13.7 mm | 17.1 mm | 14.3 mm | 15.4 mm | 12.6 mm | 13.2 mm | 16.4 mm | inactive | inactive | 17.3 mm | 31.2 (≈ 74.1 µM) | 62.5 (≈ 148 µM) | 15.6 (≈ 37.1 µM) | 62.5 (≈ 148 µM) | 62.5 (≈ 148 µM) | 7.81 (≈ 18.5 µM) | 62.5 (≈ 148 µM) | Activity (hTERT-BJ): 1.7% |
| C=CCN/C(SC)=C(/C#N)C(=O)Nc1ccc(S(=O)(=O)Nc2onc(C)c2C)cc1 | inactive | inactive | 18.2 mm | inactive | inactive | 12.6 mm | 15.7 mm | inactive | inactive | inactive | inactive |  |  | 15.6 (≈ 34.9 µM) |  |  | 62.5 (≈ 140 µM) |  |  |
| Cc1noc(NS(=O)(=O)c2ccc(N)cc2)c1C | inactive | 19.6 mm | 16.8 mm | 15.2 mm | 20.8 mm | 15.1 mm | 13.2 mm | 18.2 mm |  |  | 17.5 mm | 7.81 (≈ 29.2 µM) | 7.81 (≈ 29.2 µM) | 15.6 (≈ 58.5 µM) | 1.95 (≈ 7.29 µM) | 0.98 (≈ 3.67 µM) | 125 (≈ 468 µM) | 62.5 (≈ 234 µM) | MIC (Aspergillus fumigatus [19]): 62.5 µg/mL (≈ 234 µM) |
| CN/C(SC)=C(/C#N)C(=O)Nc1ccc(S(=O)(=O)Nc2onc(C)c2C)cc1 | inactive | inactive | inactive | inactive | inactive | inactive | inactive | inactive | inactive | inactive | inactive |  |  |  |  |  |  |  |  |
| CCS/C(Nc1ccccc1)=C(\C#N)C(=O)Nc1ccc(S(=O)(=O)Nc2onc(C)c2C)cc1 | inactive | inactive | inactive | inactive | 11.2 mm | inactive | inactive | inactive | inactive | inactive | 10.1 mm |  |  |  |  |  |  |  |  |
| CC1(C)S[C@@H]2[C@H](NC(=O)[C@H](N)c3ccccc3)C(=O)N2[C@H]1C(=O)O |  | 23.8 mm |  |  | 32.4 mm |  |  |  |  |  | 25.4 mm | 0.06 (≈ 0.172 µM) |  |  | 0.12 (≈ 0.343 µM) | 0.24 (≈ 0.687 µM) |  |  |  |
| Cc1noc(NS(=O)(=O)c2ccc(NC(=O)/C(C#N)=C(/S)Nc3ccccc3)cc2)c1C | inactive | inactive | 17.1 mm | inactive | inactive | 16.8 mm | 14.3 mm | inactive | inactive | inactive | inactive |  |  | 31.2 (≈ 66.6 µM) |  |  | 125 (≈ 266 µM) |  | MIC (Aspergillus fumigatus [19]): 15.6 µg/mL (≈ 33.3 µM); Ratio (Aspergillus fumigatus [20]): 2 |
| CC(=O)OC[C@H]1O[C@@H](S/C(Nc2ccccc2)=C(\C#N)C(=O)Nc2ccc(S(=O)(=O)Nc3onc(C)c3C)cc2)[C@H](OC(C)=O)[C@@H](OC(C)=O)[C@H]1OC(C)=O | 11.2 mm | 15.1 mm | inactive | 13.2 mm | 19.8 mm | inactive | inactive | 15.8 mm | inactive | inactive | 14.2 mm | 125 (≈ 156 µM) | 62.5 (≈ 78.1 µM) |  | 62.5 (≈ 78.1 µM) | 1.95 (≈ 2.44 µM) |  | 125 (≈ 156 µM) |  |
| GENTAMICIN | 23.4 mm |  |  | 19.9 mm |  |  |  | 26.3 mm |  |  |  |  | 0.03 |  |  | 0.24 |  | 1.95 | MIC (Proteus vulgaris [21]): 0.24 µg/mL |
| Cc1noc(NS(=O)(=O)c2ccc(NC(=O)/C(C#N)=C(/S)NC34CC5CC(CC(C5)C3)C4)cc2)c1C | 11.7 mm | 16.9 mm | 14.7 mm | 13.3 mm | 17.4 mm | 14.9 mm | 13.6 mm | 16.2 mm | inactive | inactive | 16.2 mm | 62.5 (≈ 118 µM) | 62.5 (≈ 118 µM) | 125 (≈ 237 µM) | 31.2 (≈ 59.2 µM) | 31.2 (≈ 59.2 µM) |  | 62.5 (≈ 118 µM) | MIC (Aspergillus fumigatus [19]): 62.5 µg/mL (≈ 118 µM) |
| CCS/C(NC12CC3CC(CC(C3)C1)C2)=C(\C#N)C(=O)Nc1ccc(S(=O)(=O)Nc2onc(C)c2C)cc1 | inactive | inactive | inactive | inactive | inactive | inactive | inactive | inactive | inactive | inactive | inactive |  |  |  |  |  |  |  |  |
| CCN/C(SC)=C(/C#N)C(=O)Nc1ccc(S(=O)(=O)Nc2onc(C)c2C)cc1 |  |  |  |  |  |  |  |  |  |  |  |  |  |  |  |  |  |  | Activity (hTERT-BJ): 1.1% |
| C[C@@H]1[C@H](O)[C@@H](C)/C=C/C=C/C=C/C=C/C=C/C=C/C=C/[C@H](O[C@@H]2O[C@H](C)[C@@H](O)[C@H](N)[C@@H]2O)C[C@@H]2O[C@](O)(C[C@@H](O)C[C@@H](O)[C@H](O)CC[C@@H](O)C[C@@H](O)CC(=O)O[C@H]1C)C[C@H](O)[C@H]2C(=O)O |  |  | 28.7 mm |  |  | 23.7 mm | 19.7 mm |  |  |  |  |  |  | 0.007 (≈ 0.00758 µM) |  |  | 7.81 (≈ 8.45 µM) |  | MIC (Aspergillus fumigatus [19]): 0.12 µg/mL (≈ 0.13 µM) |
| CC(=O)OC[C@H]1O[C@@H](S/C(Nc2ccccc2)=C(\C#N)C(=O)Nc2ccc(S(=O)(=O)Nc3onc(C)c3C)cc2)[C@H](OC(C)=O)[C@@H](OC(C)=O)[C@@H]1OC(C)=O | 8.3 mm | 10.6 mm | inactive | 10.6 mm | 12.4 mm | inactive | inactive | 14.2 mm | inactive | inactive | 18.9 mm | 15.6 (≈ 19.5 µM) | 62.5 (≈ 78.1 µM) |  |  |  |  |  |  |
| CS/C(Nc1ccccc1)=C(\C#N)C(=O)Nc1ccc(S(=O)(=O)Nc2onc(C)c2C)cc1 | inactive | inactive | inactive | inactive | inactive | inactive | inactive | inactive | inactive | inactive | inactive |  |  |  |  |  |  |  |  |
